# Source: PubChem BioAssay (NCI)
#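 GI50 marks 50% less growth. TGI: total growth inhibition.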
# Experiments:
# Assay in all cases: inhibition of tumour cell growth, NCI panel, 384-well format
# MDA-MB-231 breast = system: MDA-MB-231 breast
# TK-10 renal = system: TK-10 renal
# CCRF-CEM leukemia = system: CCRF-CEM leukemia
# UACC-257 melanoma = system: UACC-257 melanoma
# 786-0 renal = system: 786-0 renal
# EKVX NSCLC = system: EKVX NSCLC
# SN12C renal = system: SN12C renal
# MCF7 breast = system: MCF7 breast
# NCI-H23 lung = system: NCI-H23 lung
# MOLT-4 leukemia = system: MOLT-4 leukemia
# CAKI-1 renal = system: CAKI-1 renal
# UACC-62 melanoma = system: UACC-62 melanoma
# LOX IMVI melanoma = system: LOX IMVI melanoma
# NCI/ADR-RES ovarian = system: NCI/ADR-RES ovarian
# SF-295 CNS = system: SF-295 CNS
# NCI-H322M lung = system: NCI-H322M lung
# A549 NSCLC = system: A549 NSCLC
# HOP-92 NSCLC = system: HOP-92 NSCLC
# PC-3 prostate = system: PC-3 prostate
# SNB-19 CNS = system: SNB-19 CNS
# RXF 393 renal = system: RXF 393 renal
# OVCAR-5 ovarian = system: OVCAR-5 ovarian
# HOP-62 NSCLC = system: HOP-62 NSCLC
# IGROV1 ovarian = system: IGROV1 ovarian
# K-562 leukemia = system: K-562 leukemia
# OVCAR-3 ovarian = system: OVCAR-3 ovarian
# SK-MEL-5 melanoma = system: SK-MEL-5 melanoma
# OVCAR-8 ovarian = system: OVCAR-8 ovarian
# HL-60(TB) leukemia = system: HL-60(TB) leukemia
# SF-268 CNS = system: SF-268 CNS
# UO-31 renal = system: UO-31 renal
# HT29 colon = system: HT29 colon
# SF-539 CNS = system: SF-539 CNS
# A498 renal = system: A498 renal
# COLO 205 colon = system: COLO 205 colon
# T-47D breast = system: T-47D breast
# HCC-2998 colon = system: HCC-2998 colon
# MDA-MB-468 breast = system: MDA-MB-468 breast
# MALME-3M melanoma = system: MALME-3M melanoma
# NCI-H460 NSCLC = system: NCI-H460 NSCLC
# SK-OV-3 ovarian = system: SK-OV-3 ovarian
# SNB-75 CNS = system: SNB-75 CNS
# SK-MEL-28 melanoma = system: SK-MEL-28 melanoma
# M14 melanoma = system: M14 melanoma
# BT-549 breast = system: BT-549 breast
# U251 glioblastoma = system: U251 glioblastoma
# HCT-15 colon = system: HCT-15 colon
# RPMI-8226 leukemia = system: RPMI-8226 leukemia
# HS 578T breast = system: HS 578T breast
# HCT-116 colon = system: HCT-116 colon
# SW-620 colon = system: SW-620 colon
# NCI-H522 lung = system: NCI-H522 lung
# KM12 colon = system: KM12 colon
smiles,measurement,setting,value
Cc1cc(Nc2ncc3c(n2)N(C)C(=O)N(c2cc(NC(=O)c4cccc(C(F)(F)F)c4)ccc2C)C3)n(C)n1,GI50,MDA-MB-231 breast,0.0113 µM
same,TGI,MDA-MB-231 breast,0.0871 µM
same,GI50,TK-10 renal,0.0288 µM
same,TGI,TK-10 renal,0.12 µM
same,GI50,CCRF-CEM leukemia,1.34 µM
same,TGI,CCRF-CEM leukemia,3.42 µM
same,GI50,UACC-257 melanoma,0.0338 µM
same,TGI,UACC-257 melanoma,0.311 µM
same,GI50,786-0 renal,0.0401 µM
same,TGI,786-0 renal,0.302 µM
same,GI50,EKVX NSCLC,0.0408 µM
same,TGI,EKVX NSCLC,0.305 µM
same,GI50,SN12C renal,0.0111 µM
same,TGI,SN12C renal,0.0593 µM
same,GI50,MCF7 breast,0.88 µM
same,TGI,MCF7 breast,> 100 µM
same,GI50,NCI-H23 lung,0.0244 µM
same,TGI,NCI-H23 lung,0.189 µM
same,GI50,MOLT-4 leukemia,0.0221 µM
same,TGI,MOLT-4 leukemia,1.36 µM
same,GI50,CAKI-1 renal,< 0.01 µM
same,TGI,CAKI-1 renal,0.0205 µM
same,GI50,UACC-62 melanoma,< 0.01 µM
same,TGI,UACC-62 melanoma,0.015 µM
same,GI50,LOX IMVI melanoma,< 0.01 µM
same,TGI,LOX IMVI melanoma,0.011 µM
same,GI50,NCI/ADR-RES ovarian,1.65 µM
same,TGI,NCI/ADR-RES ovarian,3.24 µM
same,GI50,SF-295 CNS,1.42 µM
same,TGI,SF-295 CNS,> 100 µM
same,GI50,NCI-H322M lung,0.022 µM
same,TGI,NCI-H322M lung,0.137 µM
same,GI50,A549 NSCLC,0.0179 µM
same,TGI,A549 NSCLC,0.162 µM
same,GI50,HOP-92 NSCLC,0.0173 µM
same,TGI,HOP-92 NSCLC,0.0746 µM
same,GI50,PC-3 prostate,4.25 µM
same,TGI,PC-3 prostate,> 100 µM
same,GI50,SNB-19 CNS,0.199 µM
same,TGI,SNB-19 CNS,> 100 µM
same,GI50,RXF 393 renal,< 0.01 µM
same,TGI,RXF 393 renal,0.0871 µM
same,GI50,OVCAR-5 ovarian,0.0342 µM
same,TGI,OVCAR-5 ovarian,0.254 µM
same,GI50,HOP-62 NSCLC,0.0876 µM
same,TGI,HOP-62 NSCLC,0.534 µM
same,GI50,IGROV1 ovarian,< 0.01 µM
same,TGI,IGROV1 ovarian,0.0346 µM
same,GI50,K-562 leukemia,< 0.01 µM
same,GI50,OVCAR-3 ovarian,0.0243 µM
same,TGI,OVCAR-3 ovarian,0.198 µM
same,GI50,SK-MEL-5 melanoma,0.0323 µM
same,TGI,SK-MEL-5 melanoma,8.42 µM
same,GI50,OVCAR-8 ovarian,0.0341 µM
same,TGI,OVCAR-8 ovarian,0.337 µM
same,GI50,HL-60(TB) leukemia,0.0216 µM
same,TGI,HL-60(TB) leukemia,0.107 µM
same,GI50,SF-268 CNS,< 0.01 µM
same,TGI,SF-268 CNS,0.0136 µM
same,GI50,UO-31 renal,0.134 µM
same,TGI,UO-31 renal,0.312 µM
same,GI50,HT29 colon,0.0164 µM
same,TGI,HT29 colon,0.312 µM
same,GI50,SF-539 CNS,0.0726 µM
same,TGI,SF-539 CNS,0.577 µM
same,GI50,A498 renal,0.0142 µM
same,TGI,A498 renal,0.105 µM
same,GI50,COLO 205 colon,< 0.01 µM
same,TGI,COLO 205 colon,0.128 µM
same,GI50,T-47D breast,0.0257 µM
same,TGI,T-47D breast,0.0751 µM
same,GI50,HCC-2998 colon,0.0458 µM
same,TGI,HCC-2998 colon,1.09 µM
same,GI50,MDA-MB-468 breast,0.0251 µM
same,TGI,MDA-MB-468 breast,0.0982 µM
same,GI50,MALME-3M melanoma,< 0.01 µM
same,GI50,NCI-H460 NSCLC,0.052 µM
same,TGI,NCI-H460 NSCLC,> 100 µM
same,GI50,SK-OV-3 ovarian,< 0.01 µM
same,TGI,SK-OV-3 ovarian,0.0429 µM
same,GI50,SNB-75 CNS,0.0189 µM
same,TGI,SNB-75 CNS,0.0779 µM
same,GI50,SK-MEL-28 melanoma,0.0162 µM
same,TGI,SK-MEL-28 melanoma,0.083 µM
same,GI50,M14 melanoma,< 0.01 µM
same,TGI,M14 melanoma,0.0288 µM
same,GI50,BT-549 breast,0.0199 µM
same,TGI,BT-549 breast,0.0733 µM
same,GI50,U251 glioblastoma,0.0258 µM
same,TGI,U251 glioblastoma,1.2 µM
same,GI50,HCT-15 colon,0.224 µM
same,TGI,HCT-15 colon,1.39 µM
same,GI50,RPMI-8226 leukemia,0.286 µM
same,TGI,RPMI-8226 leukemia,1.79 µM
same,GI50,HS 578T breast,0.0156 µM
same,TGI,HS 578T breast,0.0543 µM
same,GI50,HCT-116 colon,0.0272 µM
same,TGI,HCT-116 colon,0.147 µM
same,GI50,SW-620 colon,0.0699 µM
same,TGI,SW-620 colon,1.28 µM
same,GI50,NCI-H522 lung,< 0.01 µM
same,TGI,NCI-H522 lung,0.0313 µM
same,GI50,KM12 colon,0.513 µM
same,TGI,KM12 colon,> 100 µM
